The values below come from article PMC2860192 (ACS chemical neuroscience, 2010).

What all share (type): cell-based
In assay [1] the test system is metabotropic glutamate receptors (mGluRs, group I) expressed by rat brain mRNA. The settings on record: antagonist test, 10 μM quisqualate in the cerebellum mRNA test.
Assay [2] addresses GluR6 (GluR6(R), edited version), homomeric KA-type receptor (Rattus norvegicus, UniProt P42260, Q621R). The assay can be described thus: two-electrode voltage clamp, Xenopus oocytes, block of kainate current.
In assay [3] the test system is AMPA receptors expressed by rat cerebral cortex mRNA. Described as above. The settings on record: competitive antagonist; 100 μM kainate; −80 mV; pH 7.4; 19–21°C.
The target in assay [4] is T1, GluR3 (GluR3o, flop variant), homomeric AMPA-type receptor (Rattus norvegicus, UniProt P19492). Described as above.
Assay [5] deals with T1, GluR3 (GluR3o, flop variant), homomeric AMPA-type receptor. The assay can be described thus: two-electrode voltage clamp, Xenopus oocytes, agonist-evoked current. The settings on record: 100 μM, −80 mV, pH 7.4. A general note: Two-electrode voltage clamp is typically applied to oocytes expressing channels or transporters.

The structures appear in SMILES notation.

By IC50 is commonly meant the concentration at which inhibition is half-maximal. A low value points to higher potency.

GluR6 (GluR6(R), edited version), homomeric KA-type receptor, sequence (P42260 32-908 Q621R): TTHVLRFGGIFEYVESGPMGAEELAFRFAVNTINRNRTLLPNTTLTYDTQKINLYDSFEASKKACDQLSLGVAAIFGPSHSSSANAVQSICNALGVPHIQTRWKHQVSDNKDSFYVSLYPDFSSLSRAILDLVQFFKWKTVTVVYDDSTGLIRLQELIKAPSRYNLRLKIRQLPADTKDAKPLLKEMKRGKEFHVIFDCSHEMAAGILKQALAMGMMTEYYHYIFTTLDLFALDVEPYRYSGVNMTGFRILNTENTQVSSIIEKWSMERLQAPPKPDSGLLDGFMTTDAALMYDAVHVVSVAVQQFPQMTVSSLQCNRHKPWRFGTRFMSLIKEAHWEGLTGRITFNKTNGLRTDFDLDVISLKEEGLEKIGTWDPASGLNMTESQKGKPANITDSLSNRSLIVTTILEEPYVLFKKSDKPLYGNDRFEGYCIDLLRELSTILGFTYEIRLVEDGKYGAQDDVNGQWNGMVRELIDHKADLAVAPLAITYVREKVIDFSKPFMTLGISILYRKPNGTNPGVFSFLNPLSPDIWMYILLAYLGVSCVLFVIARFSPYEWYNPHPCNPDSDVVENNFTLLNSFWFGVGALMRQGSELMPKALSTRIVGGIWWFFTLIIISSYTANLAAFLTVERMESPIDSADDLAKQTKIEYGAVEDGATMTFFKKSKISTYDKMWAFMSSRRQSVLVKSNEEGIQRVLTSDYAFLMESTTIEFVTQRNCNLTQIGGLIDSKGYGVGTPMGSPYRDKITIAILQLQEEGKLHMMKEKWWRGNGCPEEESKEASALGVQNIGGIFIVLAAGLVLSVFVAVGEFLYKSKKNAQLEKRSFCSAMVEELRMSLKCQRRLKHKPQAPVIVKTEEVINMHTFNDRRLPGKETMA

Consider `N[C@@H](C(=O)O)[C@H](O)[C@@]1(C(=O)O)CC[C@H](C[C@H](NC(=O)c2cc(Cl)c(O)c(Cl)c2)C(=O)O)N1` [(−)-kaitocephalin], for which the IC50 in assay [1] is more than 100000 nM; in assay [2] it was approximately 100000 nM; in assay [3], 242 ± 37 nM; in assay [4], 502 ± 55 nM.

Regarding `C=C(C)[C@H]1CN[C@H](C(=O)O)[C@H]1CC(=O)O` [kainate], in assay [5], the “two-electrode voltage clamp, Xenopus oocytes, agonist-evoked current” value was “GluR3 receptors, similarly to the AMPA receptors expressed by mRNA, generated large KA-currents”.
